Assays:
[1] = molecular target: T1, Retinoic acid receptor RXR-alpha (Homo sapiens, UniProt P19793)
T1 sequence (P19793 whole entry): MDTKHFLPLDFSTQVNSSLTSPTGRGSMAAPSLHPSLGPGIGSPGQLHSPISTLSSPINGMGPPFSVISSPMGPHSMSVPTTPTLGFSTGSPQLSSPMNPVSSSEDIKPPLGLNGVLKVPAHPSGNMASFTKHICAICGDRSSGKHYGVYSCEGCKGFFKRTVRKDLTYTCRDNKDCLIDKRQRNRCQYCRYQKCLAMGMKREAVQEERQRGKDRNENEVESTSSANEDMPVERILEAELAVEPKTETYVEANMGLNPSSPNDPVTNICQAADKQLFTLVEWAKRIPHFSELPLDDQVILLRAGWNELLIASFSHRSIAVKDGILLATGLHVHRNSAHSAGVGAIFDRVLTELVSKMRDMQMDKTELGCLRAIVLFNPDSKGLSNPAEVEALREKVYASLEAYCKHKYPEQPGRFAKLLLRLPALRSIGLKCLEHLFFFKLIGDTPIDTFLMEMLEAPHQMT

[2] = molecular target: T1, Retinoic acid receptor RXR-alpha; experiment: Transcriptional activation for RXR alpha receptor
[3] = molecular target: T2, Retinoic acid receptor alpha (Homo sapiens, UniProt P10276); experiment: Transcriptional activation for RAR alpha receptor
T2 sequence (P10276 whole entry): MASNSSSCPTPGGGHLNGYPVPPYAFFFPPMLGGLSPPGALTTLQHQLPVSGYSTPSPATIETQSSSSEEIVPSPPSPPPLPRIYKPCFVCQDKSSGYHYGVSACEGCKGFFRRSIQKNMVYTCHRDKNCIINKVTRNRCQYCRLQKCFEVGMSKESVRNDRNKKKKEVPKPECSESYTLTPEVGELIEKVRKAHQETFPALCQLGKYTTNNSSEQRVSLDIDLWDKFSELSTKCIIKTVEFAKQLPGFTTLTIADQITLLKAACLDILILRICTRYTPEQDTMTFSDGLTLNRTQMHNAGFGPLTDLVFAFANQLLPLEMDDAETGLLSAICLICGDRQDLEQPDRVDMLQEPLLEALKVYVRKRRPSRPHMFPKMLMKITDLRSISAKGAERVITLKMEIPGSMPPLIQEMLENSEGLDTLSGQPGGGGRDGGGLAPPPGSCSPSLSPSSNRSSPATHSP

[4] = molecular target: T3, Retinoic acid receptor beta (Homo sapiens, UniProt P10826); experiment: Transcriptional activation for RAR beta receptor
T3 sequence (P10826 whole entry): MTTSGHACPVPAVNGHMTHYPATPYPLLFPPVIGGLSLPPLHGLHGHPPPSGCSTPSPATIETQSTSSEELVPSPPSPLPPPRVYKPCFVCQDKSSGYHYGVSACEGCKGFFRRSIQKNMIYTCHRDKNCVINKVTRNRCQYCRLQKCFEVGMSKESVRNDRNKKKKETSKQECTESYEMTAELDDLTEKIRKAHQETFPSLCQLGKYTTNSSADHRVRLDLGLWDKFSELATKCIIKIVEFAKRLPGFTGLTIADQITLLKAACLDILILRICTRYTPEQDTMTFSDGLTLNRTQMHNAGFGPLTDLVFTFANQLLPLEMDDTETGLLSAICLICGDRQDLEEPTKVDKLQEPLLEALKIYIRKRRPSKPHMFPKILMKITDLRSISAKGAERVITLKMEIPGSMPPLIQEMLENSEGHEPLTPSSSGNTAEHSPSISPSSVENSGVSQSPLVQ

[5] = molecular target: T4, Retinoic acid receptor gamma (Homo sapiens, UniProt P13631); experiment: Transcriptional activation for RAR gamma receptor
T4 sequence (P13631 whole entry): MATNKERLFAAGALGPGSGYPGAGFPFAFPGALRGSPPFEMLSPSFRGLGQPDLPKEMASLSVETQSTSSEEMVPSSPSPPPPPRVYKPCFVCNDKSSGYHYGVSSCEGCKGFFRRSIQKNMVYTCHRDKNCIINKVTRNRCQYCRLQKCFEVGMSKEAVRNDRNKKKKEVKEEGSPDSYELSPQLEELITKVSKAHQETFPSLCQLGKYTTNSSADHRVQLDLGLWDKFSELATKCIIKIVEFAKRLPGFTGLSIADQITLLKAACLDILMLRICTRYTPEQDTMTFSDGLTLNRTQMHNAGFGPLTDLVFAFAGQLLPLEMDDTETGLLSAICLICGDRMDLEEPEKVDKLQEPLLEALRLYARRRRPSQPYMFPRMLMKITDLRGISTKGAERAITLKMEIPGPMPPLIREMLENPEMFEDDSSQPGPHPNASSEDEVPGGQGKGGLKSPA

[6] = molecular target: T2, Retinoic acid receptor alpha; experiment: Transcriptional activation for RAR alpha receptor; not active (EC50>10e4 nM)
[7] = molecular target: T3, Retinoic acid receptor beta; experiment: Transcriptional activation for RAR beta receptor; not active (EC50>10e4 nM)
[8] = molecular target: T4, Retinoic acid receptor gamma; experiment: Transcriptional activation for RAR gamma receptor; not active (EC50>10e4 nM)

Row | Structure (SMILES) | EC50 [1] | EC50 [2] [nM] | EC50 [3] [nM] | EC50 [4] [nM] | EC50 [5] [nM] | EC50 [6] | EC50 [7] | EC50 [8]
1 | C/C(=C\c1ccc(C(=O)O)cc1)c1ccc2c(c1)C(C)(C)CCC2(C)C | Not Active | – | – | – | – | – | – | –
2 | C/C(=C\c1ccc(C(=O)O)cc1)c1cc2c(cc1Cl)C(C)(C)CCC2(C)C | – | 275 | > 1000 | 21 | 77 | – | – | –
3 | C/C(=C\c1ccc(C(=O)O)cc1)c1cc2c(cc1C)C(C)(C)CCC2(C)C | – | 385 | 4580 | 74 | 152 | – | – | –
4 | C/C(=C\c1ccc2c(c1)C(C)(C)CCC2(C)C)c1ccc(C(=O)O)cc1 | Not Active | – | 24 | 0.5 | 0.4 | – | – | –
5 | CCc1cc2c(cc1/C(C)=C/c1ccc(C(=O)O)cc1)C(C)(C)CCC2(C)C | – | 2220 | – | 961 | 195 | Not Active | – | –
6 | C/C(=C\c1ccc(C(=O)O)cc1)c1cc2c(cc1Br)C(C)(C)CCC2(C)C | – | 298 | 989 | 21 | 91 | – | – | –
7 | Cc1cc2c(cc1/C=C/c1ccc(C(=O)O)cc1)C(C)(C)CCC2(C)C | Not Active | – | 15 | 0.4 | 1.4 | – | – | –
8 | CC1(C)CCC(C)(C)c2cc(/C=C/c3ccc(C(=O)O)cc3)ccc21 | Not Active | – | 11 | 0.4 | 0.4 | – | – | –
9 | CC(=Cc1ccc(C(=O)O)cc1)c1cc2c(cc1C)C(C)(C)CCC2(C)C | – | > 6400 | – | – | – | Not Active | Not Active | Not Active

Reference: ChEMBL document CHEMBL1127910, “Structural basis for the differential RXR & RAR activity of stilbene retinoid analogs” (Bioorg Med Chem Lett, 1994)
